Data from US20130338130A1 (priority 2009, published 2013).
Read-outs that look alike come from different tables or passages of the source.

Tested on: ATCC strain 43300 Staphylococcus aureus
Details: for recovery after enrichment in Mueller-Hinton broth: 1 cfu detection limit
Experimental: Additional antibiotic was added every 24 hours. The growth periods tested were 24 (see FIG. 4), 48, 72, 96 and 120 hours.
USP<51> Antimicrobial Effectiveness protocol was used as the template experimental paradigm. […] All concentrations were plated out to the 10^−7 dilutions to ascertain cfu/ml. […] Additional antibiotic was added at the initial concentration every 24 hours.
ATCC strain 43300 Staphylococcus aureus was streaked out for isolations. An isolated colony was chosen, streaked again and incubated. Isolate was chosen and then diluted to a McFarland standard of one. The estimated value was then taken to inoculate tubes containing growth media and 12, 30 or 60 μg/ml oxacillin with approximately 10^5 cfu/ml. These tubes were incubated and plated for counting cfu. A clone having no observed log reduction in cfu was selected for the rest of the experiment.
Material was calculated on a 10 ml volume. Sterile oxacillin was added to each experimental condition to a final concentration of 12, 30 or 60 μg/ml antibiotic.
All tubes were then inoculated with a dilution of the selected ATCC strain 43300 Staphylococcus aureus clone giving a final level of colony forming units of 3.3×10^5/ml (log=5.52). The tubes were incubated at 25° C. and mixed periodically. Antibiotic was re-inoculated every 24 hours at the initial concentration to maintain pressure on the organism. Plating was done at 24, 48, 72, and 120 hours. Each condition was plated by diluting 1 ml of growth material into 9 ml of MLB diluent broth. […] This mixture was serial diluted down to 10^−7 with 1 ml placed in triplicate in a sterile petri dish at each dilution point. 20 mls of TSA was added to each dilution, swirled and allowed to solidify. All dilutions were placed in a 35° C. incubator for 24 to 72 hours. Bacterial colonies on each plate were counted and the average taken then changed into log format. Any cfu/ml observed greater than 3.3×10^5 (log=5.5) were recorded as >3.3×10^5.
The tube was then taken out of the experiment and tested for ATCC strain 43300 Staphylococcus growth. The tube was spun down at 5000 rpm for 10 minutes. The supernatant was then decanted into 90 mls of Mueller-Hinton broth with 6 μg/ml oxacillin. This is for enrichment and the recovery of any MRSA cells that may be present whether healthy or stressed. The pellet had 10 mls Mueller-Hinton broth with 6 μg/ml oxacillin added to it to recover any cells that may be present. Both vessels were incubated at 35° C. for 48 hours followed by plating every 24 hours. Each vessel was plated at 10 dilutions to obtain a 1 cfu detection limit.

## CS(C)(=O)=O [MSM, Methylsulfonylmethane]
12 μg/ml oxacillin + MSM (% in label), 72 hours, listed as 8% MSM
  survival, Average Log: 5.5 Log
12 μg/ml oxacillin + MSM (% in label), 72 hours, listed as 9% MSM
  survival, Average Log: 4.5 Log
12 μg/ml oxacillin + MSM (% in label), 72 hours, listed as 10% MSM
  survival, Average Log: 4.0 Log
12 μg/ml oxacillin + MSM (% in label), 72 hours, listed as 11% MSM
  survival, Average Log: 3.6 Log
12 μg/ml oxacillin + MSM (% in label), 72 hours, listed as 12% MSM
  survival, Average Log: 3.1 Log
12 μg/ml oxacillin + MSM (% in label), 72 hours, listed as 13% MSM
  survival, Average Log: 2.7 Log
12 μg/ml oxacillin + MSM (% in label), 72 hours, listed as 14% MSM
  survival, Average Log: 2.0 Log
12 μg/ml oxacillin + MSM (% in label), 72 hours, listed as 15% MSM
  survival, Average Log: 2.3 Log
12 μg/ml oxacillin, 48 hours
  log reduction in the number of cfu/ml: 4.5 log
12 μg/ml oxacillin, 72 hours
  log reduction in the number of cfu/ml: 4.5 log
12 μg/ml oxacillin, MSM concentrations of 12%-16%, 72 hours
  log reduction in the number of cfu/ml: 1 log
12 μg/ml oxacillin, all MSM concentrations, 24 hours
  average log reduction in the number of cfu/ml: 1.5 logs
30 μg/ml and 60 μg/ml oxacillin, lower end of MSM concentrations, 24 hours
  average Log reduction in the number of cfu/ml: 3 log
30 μg/ml oxacillin + MSM (% in label), 24 hours, listed as 5% MSM
  survival, Average Log: 2.51 Log
30 μg/ml oxacillin + MSM (% in label), 24 hours, listed as 6% MSM
  survival, Average Log: 2.46 Log
30 μg/ml oxacillin + MSM (% in label), 24 hours, listed as 7% MSM
  survival, Average Log: 2.98 Log
30 μg/ml oxacillin + MSM (% in label), 24 hours, listed as 8% MSM
  survival, Average Log: 3.07 Log
30 μg/ml oxacillin + MSM (% in label), 24 hours, listed as 9% MSM
  survival, Average Log: 3.01 Log
30 μg/ml oxacillin + MSM (% in label), 24 hours, listed as 10% MSM
  survival, Average Log: 3.32 Log
30 μg/ml oxacillin + MSM (% in label), 24 hours, listed as 11% MSM
  survival, Average Log: 3.57 Log
30 μg/ml oxacillin + MSM (% in label), 24 hours, listed as 12% MSM
  survival, Average Log: 3.59 Log
30 μg/ml oxacillin + MSM (% in label), 24 hours, listed as 13% MSM
  survival, Average Log: 3.62 Log
30 μg/ml oxacillin + MSM (% in label), 24 hours, listed as 14% MSM
  survival, Average Log: 3.78 Log
30 μg/ml oxacillin + MSM (% in label), 24 hours, listed as 15% MSM
  survival, Average Log: 3.94 Log
30 μg/ml oxacillin + MSM (% in label), 24 hours, listed as 16% MSM
  survival, Average Log: 3.91 Log
30 μg/ml oxacillin + MSM (% in label), 48 hours, listed as 5% MSM
  survival, Average Log: 3.8 Log
30 μg/ml oxacillin + MSM (% in label), 48 hours, listed as 6% MSM
  survival, Average Log: 3.7 Log
30 μg/ml oxacillin + MSM (% in label), 48 hours, listed as 7% MSM
  survival, Average Log: 2.3 Log
30 μg/ml oxacillin + MSM (% in label), 48 hours, listed as 8% MSM
  survival, Average Log: 3.1 Log
30 μg/ml oxacillin + MSM (% in label), 48 hours, listed as 9% MSM
  survival, Average Log: 2.4 Log
30 μg/ml oxacillin + MSM (% in label), 48 hours, listed as 10% MSM
  survival, Average Log: 2.6 Log
30 μg/ml oxacillin + MSM (% in label), 48 hours, listed as 11% MSM
  survival, Average Log: 2.4 Log
30 μg/ml oxacillin + MSM (% in label), 48 hours, listed as 12% MSM
  survival, Average Log: 2.6 Log
30 μg/ml oxacillin + MSM (% in label), 48 hours, listed as 13% MSM
  survival, Average Log: 2.5 Log
30 μg/ml oxacillin + MSM (% in label), 48 hours, listed as 14% MSM
  survival, Average Log: 2.5 Log
30 μg/ml oxacillin + MSM (% in label), 48 hours, listed as 15% MSM
  survival, Average Log: 2.8 Log
30 μg/ml oxacillin + MSM (% in label), 48 hours, listed as 16% MSM
  survival, Average Log: 2.6 Log
30 μg/ml oxacillin + MSM (% in label), 72 hours, listed as 5% MSM
  survival, Average Log: 5.5 Log
30 μg/ml oxacillin + MSM (% in label), 72 hours, listed as 6% MSM
  survival, Average Log: 5.5 Log
30 μg/ml oxacillin + MSM (% in label), 72 hours, listed as 7% MSM
  survival, Average Log: 4.5 Log
30 μg/ml oxacillin + MSM (% in label), 72 hours, listed as 8% MSM
  survival, Average Log: 5.5 Log
30 μg/ml oxacillin + MSM (% in label), 72 hours, listed as 9% MSM
  survival, Average Log: 2.9 Log
30 μg/ml oxacillin + MSM (% in label), 72 hours, listed as 10% MSM
  survival, Average Log: 3.9 Log
30 μg/ml oxacillin + MSM (% in label), 72 hours, listed as 11% MSM
  survival, Average Log: 3.2 Log
30 μg/ml oxacillin + MSM (% in label), 72 hours, listed as 12% MSM
  survival, Average Log: 2.6 Log
30 μg/ml oxacillin + MSM (% in label), 72 hours, listed as 13% MSM
  survival, Average Log: 1.8 Log
30 μg/ml oxacillin + MSM (% in label), 72 hours, listed as 14% MSM
  survival, Average Log: 2.2 Log
30 μg/ml oxacillin + MSM (% in label), 72 hours, listed as 15% MSM
  survival, Average Log: 2.4 Log
30 μg/ml oxacillin + MSM (% in label), 72 hours, listed as 16% MSM
  survival, Average Log: 1.9 Log
30 μg/ml oxacillin, 120 hours
  recovery after enrichment in Mueller-Hinton broth: total kill
60 μg/ml oxacillin + MSM (% in label), 24 hours, listed as 5% MSM
  survival, Average Log: 2.54 Log
60 μg/ml oxacillin + MSM (% in label), 24 hours, listed as 6% MSM
  survival, Average Log: 2.38 Log
60 μg/ml oxacillin + MSM (% in label), 24 hours, listed as 7% MSM
  survival, Average Log: 2.34 Log
60 μg/ml oxacillin + MSM (% in label), 24 hours, listed as 8% MSM
  survival, Average Log: 2.67 Log
60 μg/ml oxacillin + MSM (% in label), 24 hours, listed as 9% MSM
  survival, Average Log: 2.50 Log
60 μg/ml oxacillin + MSM (% in label), 24 hours, listed as 10% MSM
  survival, Average Log: 2.63 Log
60 μg/ml oxacillin + MSM (% in label), 24 hours, listed as 11% MSM
  survival, Average Log: 2.83 Log
60 μg/ml oxacillin + MSM (% in label), 24 hours, listed as 12% MSM
  survival, Average Log: 2.86 Log
60 μg/ml oxacillin + MSM (% in label), 24 hours, listed as 13% MSM
  survival, Average Log: 2.80 Log
60 μg/ml oxacillin + MSM (% in label), 24 hours, listed as 14% MSM
  survival, Average Log: 2.03 Log
60 μg/ml oxacillin + MSM (% in label), 24 hours, listed as 15% MSM
  survival, Average Log: 3.81 Log
60 μg/ml oxacillin + MSM (% in label), 24 hours, listed as 16% MSM
  survival, Average Log: 3.83 Log
60 μg/ml oxacillin + MSM (% in label), 48 hours, listed as 5% MSM
  survival, Average Log: 3.5 Log
60 μg/ml oxacillin + MSM (% in label), 48 hours, listed as 6% MSM
  survival, Average Log: 1.8 Log
60 μg/ml oxacillin + MSM (% in label), 48 hours, listed as 7% MSM
  survival, Average Log: 4.0 Log
60 μg/ml oxacillin + MSM (% in label), 48 hours, listed as 8% MSM
  survival, Average Log: 2.8 Log
60 μg/ml oxacillin + MSM (% in label), 48 hours, listed as 9% MSM
  survival, Average Log: 2.2 Log
60 μg/ml oxacillin + MSM (% in label), 48 hours, listed as 10% MSM
  survival, Average Log: 2.2 Log
60 μg/ml oxacillin + MSM (% in label), 48 hours, listed as 11% MSM
  survival, Average Log: 2.1 Log
60 μg/ml oxacillin + MSM (% in label), 48 hours, listed as 12% MSM
  survival, Average Log: 2.0 Log
60 μg/ml oxacillin + MSM (% in label), 48 hours, listed as 13% MSM
  survival, Average Log: 1.7 Log
60 μg/ml oxacillin + MSM (% in label), 48 hours, listed as 14% MSM
  survival, Average Log: 2.2 Log
60 μg/ml oxacillin + MSM (% in label), 48 hours, listed as 15% MSM
  survival, Average Log: 2.1 Log
60 μg/ml oxacillin + MSM (% in label), 48 hours, listed as 16% MSM
  survival, Average Log: 1.9 Log
60 μg/ml oxacillin + MSM (% in label), 72 hours, listed as 11% MSM
  survival, Average Log: 1 Log
60 μg/ml oxacillin + MSM (% in label), 72 hours, listed as 12% MSM
  survival, Average Log: 2.4 Log
60 μg/ml oxacillin + MSM (% in label), 72 hours, listed as 13% MSM
  survival, Average Log: 1 Log
60 μg/ml oxacillin + MSM (% in label), 72 hours, listed as 14% MSM
  survival, Average Log: 1.5 Log
60 μg/ml oxacillin + MSM (% in label), 72 hours, listed as 16% MSM
  survival, Average Log: 1.8 Log
60 μg/ml oxacillin, 24 hours
  log reduction in the number of cfu/ml: 3.5 log
60 μg/ml oxacillin, 72 hours
  recovery after enrichment in Mueller-Hinton broth: total kill
60 μg/ml oxacillin, 96 hours
  recovery after enrichment in Mueller-Hinton broth: total kill
60 μg/ml oxacillin, 120 hours
  recovery after enrichment in Mueller-Hinton broth: total kill
Positive 5%, 10%, and 16% MSM controls, no antibiotic, 24 hours
  growth: signs of turbid growth
